Values of other authors as cited in paper PMC5845353, “The selective cathepsin K inhibitor MIV-711 attenuates joint pathology in experimental animal models of osteoarthritis” (Journal of Translational Medicine, 2018).

Tested on: HP-1
Design: method as in PMID 22484689
Settings: ACLT rabbits; cited from earlier work

## CN1CCN(c2nc(-c3ccc(C(=O)NC4(C(=O)NCC#N)CCCCC4)cc3)cs2)CC1 [L-006235]
  reduction of HP-1 at dose sufficient for protection of bone loss: 60%
